In the first data set the target is T1, Recombinant HCV polymerase (Hepatitis C virus genotype 1b, UniProt P26663).
T1 construct: 2.5 pmoles (0.15 μg) HCV polymerase protein
T1 sequence (P26663 2420-3010): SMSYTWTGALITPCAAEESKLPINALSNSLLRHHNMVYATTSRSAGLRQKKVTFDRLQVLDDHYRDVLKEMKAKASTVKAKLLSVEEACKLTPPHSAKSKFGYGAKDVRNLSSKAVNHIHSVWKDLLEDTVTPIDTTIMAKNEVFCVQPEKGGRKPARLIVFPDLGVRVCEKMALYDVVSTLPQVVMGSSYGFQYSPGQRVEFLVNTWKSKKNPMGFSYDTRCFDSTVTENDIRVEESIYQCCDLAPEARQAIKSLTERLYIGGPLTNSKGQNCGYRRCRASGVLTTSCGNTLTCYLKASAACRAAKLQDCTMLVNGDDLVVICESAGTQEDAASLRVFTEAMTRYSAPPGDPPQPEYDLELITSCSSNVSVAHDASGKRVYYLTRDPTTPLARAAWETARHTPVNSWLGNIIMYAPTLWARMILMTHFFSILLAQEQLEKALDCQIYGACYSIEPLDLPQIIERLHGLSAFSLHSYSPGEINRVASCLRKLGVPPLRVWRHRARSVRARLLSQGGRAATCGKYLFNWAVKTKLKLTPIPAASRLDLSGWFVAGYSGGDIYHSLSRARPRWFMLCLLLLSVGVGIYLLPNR
The data set can be described thus: HCV Polymerase Inhibition Assay. It is filed as biochemical. Conditions: primer/template-directed transcription, 30 minutes at 30° C.; category symbol. The method, boiled down: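 Recombinant genotype 1b polymerase (2.5 pmol) extended biotin-dG12 on poly(rC)300 with 1 μM GTP plus α-32P-GTP, pH 7.2, 30 min at 30 °C, 1% DMSO final; DE-filter-bound product counted. IC50 fitted from triplicate cpm, refitted with enzyme-concentration (30 nM) tight-binding equation when below 200 nM.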
As a reminder, the IC50 is the concentration that inhibits the measured activity by half. As for `CCSc1ccc(CCC2(C3CCCC3)CC(=O)CC(=O)O2)cc1` (centres unmarked) [Example 75, 6-Cyclopentyl-6-[2-(4-ethylsulfanyl-phenyl)-ethyl]-dihydro-pyran-2,4-dione], the IC50 lay within 1 to 10 µM. For `O=C1CC(=O)OC(CCc2ccc(N3CCCC3=O)c(F)c2)(C2CCCC2)C1` (centres unmarked) [Example 80, 6-Cyclopentyl-6-{2-[3-fluoro-4-(2-oxo-pyrrolidin-1-yl)-phenyl]-ethyl}-dihydro-pyran-2,4-dione], the IC50 is 1 to 10 µM. On the same count and under the same terms, the same measure for `O=C1C=C(O)CC(CC2CCc3ccccc32)(C2CCCC2)O1` (mixture of isomers) [Example 15, 6-Cyclopentyl-4-hydroxy-6-indan-1-ylmethyl-5,6-dihydro-pyran-2-one]: above 50 µM; for `COc1cc(OC)c(CCC2(C3CCCC3)CC(O)=C(Sc3nc[nH]n3)C(=O)O2)cc1Cl` (centres unmarked) [Example 93, 6-[2-(5-Chloro-2,4-dimethoxyphenyl)ethyl]-6-cyclopentyl-4-hydroxy-3-(1H-1,2,4-triazol-3-ylthio)-5,6-dihydro-2H-puran-2-one]: below 1 µM; for “5-Trifluoromethyl-pyridine-2-sulfonic acid[5-tert-butyl-4-(6,6-dicyclopentyl-4-hydroxy-2-oxo-5,6-dihydro-2H-pyran-3-ylsulfanyl)-2-methyl-phenyl]-amide [Example 185]”: 10 to 50 µM. Same read-out and setting: the value for `Cc1cc(SC2=C(O)CC(CCC(C)C)(C3CCCC3)OC2=O)c(C(C)(C)C)cc1CO` (centres unmarked) [Example 144, 3-(2-tert-butyl-4-hydroxymethyl-5-methyl-phenylsulfanyl)-6-cyclopentyl-4-hydroxy-6-(3-methyl-butyl)-5,6-dihydro-pyran-2-one] was above 50 µM; that for `COc1ccc(CCC2(C3CCCC3)CC(O)=C(Sc3nc(C)c(CC(=O)O)s3)C(=O)O2)cc1` (centres unmarked) [Example 112, [2-({6-Cyclopentyl-4-hydroxy-6-[2-(4-methoxyphenyl)ethyl]-2-oxo-5,6-dihydro-2H-pyran-3-yl}thio)-4-methyl-1,3-thiazol-5-yl]acetic acid] was below 1 µM; that for `COc1ccc(CCC2(C3CCCC3)CC(O)=C(Sc3ccccc3)C(=O)O2)cc1Cl` (centres unmarked) [Example 102, 6-[2-(3-Chloro-4-methoxy-phenyl)-ethyl]-6-cyclopentyl-4-hydroxy-3-phenylsulfanyl-5,6-dihydro-pyran-2-one] was below 1 µM.

As for `CCCc1ccc(CCC2(C3CCCC3)CC(=O)CC(=O)O2)cc1` (centres unmarked) [Example 55], the IC50 was in the range of 1 to 10 µM.

`CCOc1cccc(CCC2(C3CCCC3)CC(=O)CC(=O)O2)c1` (centres unmarked) [Example 24, 6-Cyclopentyl-6-[2-(3-ethoxy-phenyl)-ethyl]-dihydro-pyran-2,4-dione]: the IC50 lay in the range of 1 to 10 µM. Still for that read-out and setting: the same measure for `O=C1OC(CCc2ccc(O)cc2)(C2CCCC2)CC(O)=C1Sc1cccc2ccccc12` (centres unmarked) [Example 85, 6-Cyclopentyl-4-hydroxy-6-[2-(4-hydroxyphenyl)ethyl]-3-(naphthalen-1-ylsulfanyl)-5,6-dihydropyran-2-one]: 1 to 10 µM; for `COc1ccc(CCC2(C3CCCC3)CC(=O)C(C(=O)Cc3ccccc3)C(=O)O2)c(OC)c1` (centres unmarked) [Example 169, 6-Cyclopentyl-6-[2-(2,4-dimethoxy-phenyl)-ethyl]-3-phenylacetyl-dihydro-pyran-2,4-dione]: 10 to 50 µM. Same read-out and setting: the same measure for `CCCCN(C1=C(O)C[C@@](CCc2cccc(O)c2)(C2CCCC2)OC1=O)c1ccccc1` [Example 157, (S)-3-(butyl-phenyl-amino)-6-Cyclopentyl-4-hydroxy-6-[2-(3-hydroxy-phenyl)-ethyl]-5,6-dihydro-pyran-2-one]: 1 to 10 µM; for `C=CCOCc1ccccc1CCC1(C2CCCC2)CC(=O)CC(=O)O1` (centres unmarked) [Example 5, 6-[2-(2-Allyloxymethylphenyl)ethyl]-6-cyclopentyldihydropyran-2,4-dione]: 10 to 50 µM. The same measure, in the same setting: the same measure for `O=C1OC(CCc2ccc(OCc3ccccc3)cc2)(C2CCCC2)CC(O)=C1Sc1cccc2ccccc12` (centres unmarked) [Example 86, 6-[2-(4-Benzyloxyphenyl)ethyl]-6-cyclopentyl-4-hydroxy-3-(napthalen-1-ylsulfanyl)-5,6-dihydropyran-2-one]: 1 to 10 µM; for `Cc1cc(SC2=C(O)CC(CCc3ccc(O)cc3)(C3CCCC3)OC2=O)c(C(C)(C)C)cc1N` (centres unmarked) [Example 136, 3-(4-Amino-2-tert-butyl-5-methyl-phenylsulfanyl)-6-cyclopentyl-4-hydroxy-6-[2-(4-hydroxy-phenyl)-ethyl]-5,6-dihydro-pyran-2-one]: below 1 µM. In the case of `COC(=O)Cc1ccc(CCC2(C3CCCC3)CC(=O)CC(=O)O2)cc1` (centres unmarked) [Example 10, {4-[2-(2-Cyclopentyl-4,6-dioxo-tetrahydro-pyran-2-yl)-ethyl]-phenyl}-acetic acid methyl ester], the IC50 was in the range of 10 to 50 µM. Consider `CC(C)c1ccc(CCC2(C3CCCC3)CC(=O)CC(=O)O2)cc1` (centres unmarked) [Example 40, 6-Cyclopentyl-6-[2-(4-isopropyl-phenyl)-ethyl]-dihydro-pyran-2,4-dione], for which the IC50 was in the range of 1 to 10 µM. The same measure, in the same setting: the value for `O=C1CC(=O)OC(CCc2ccc(C(=O)N3CCC(O)CC3)cc2)(C2CCCC2)C1` (centres unmarked) [Example 67, 6-Cyclopentyl-6-(2-[4-(4-hydroxy-piperidine-1-carbonyl)-phenyl]-ethyl}-dihydro-pyran-2,4-dione] was above 50 µM; that for `COc1cc(OC)c(CCC2(C3CCCC3)CC(O)=C(SC3=NCCCN3)C(=O)O2)cc1Cl` (centres unmarked) [Example 110, 6-[2-(5-Chloro-2,4-dimethoxyphenyl)ethyl]-6-cyclopentyl-4-hydroxy-3-(1,4,5,6-tetrahydropyrimidin-2-ylthio)-5,6-dihydro-2H-pyran-2-one] was below 1 µM; that for `CC(=O)c1ccc(CCC2(C3CCCC3)CC(=O)CC(=O)O2)cc1Cl` (centres unmarked) [Example 61, 6-[2-(4-Acetyl-3-chloro-phenyl)-ethyl]-6-cyclopentyl-dihydro-pyran-2,4-dione] was 1 to 10 µM. As to `COc1ccc(CCC2(C3CCCC3)CC3=C(CCCO3)C(=O)O2)c(OC)c1` (centres unmarked) [Example 103, 7-Cyclopentyl-7-[2-(2,4-dimethoxyphenyl)ethyl]-3,4,7,8-tetrahydro-2H,5H-pyrano[4,3-b]pyran-5-one], the IC50 was above 50 µM. The same measure, in the same setting: the value for `CC(=O)c1cccc(CCC2(C3CCCC3)CC(=O)CC(=O)O2)c1` (centres unmarked) [Example 64, 6-[2-(3-Acetyl-phenyl)-ethyl]-6-cyclopentyl-dihydro-pyran-2,4-dione] was 1 to 10 µM. Same read-out and setting: the same measure for `COc1ccc(CCC2(C3CCCC3)CC(O)=C(Sc3nc4nc(C)cc(C)n4n3)C(=O)O2)cc1Cl` (centres unmarked) [Example 101, 6-[2-(3-Chloro-4-methoxy-phenyl)-ethyl]-6-cyclopentyl-3-(5,7-dimethyl-[1,2,4]triazolo[1,5-a]pyrimidin-2-ylsulfanyl)-4-hydroxy-5,6-dihydro-pyran-2-one]: below 1 µM.

Still in this data set, the particulars now being: primer/template-directed transcription, 30 minutes at 30° C.; read-out: IC50(μM) Category.
In the case of `COc1ccc(CCC2(C3CCCC3)CC(=O)C(Cc3ccccc3)C(=O)O2)cc1Cl` (centres unmarked) [Example 178, 3-Benzyl-6-[2-(3-chloro-4-methoxy-phenyl)-ethyl]-6-cyclopentyl-dihydro-pyran-2,4-dione], the IC50 is 0.6 µM.

System in another data set: not given
Assay: not given
Settings: not given
As a reminder, the melting point is the temperature of the solid-liquid transition. `CCN(C1=C(O)C[C@@](CCc2ccc(O)cc2)(C2CCCC2)OC1=O)c1ccccc1` [Example 158]: the melting point was 90 to 92 °C.

These data come from patent publication US7115658B2 (priority 2002, dated 2006).
